Measured values: EP2417971A1, “Clomiphene for use in increasing the chances of pregnancy of women having a low ovarian reserve” (Nitzschke, Markus, priority 2010, dated 2012)
Where “and” joins values, the source holds several entries; their conditions need not be identical. Identical values can stand only once. Counter-ions that a name gives are not always drawn.

How the values were obtained:
endometrium = system: endometrium; design: species or system human; conditions: in vivo
From the text: Teramoto has therefore used Clomiphene, inter alia, to control the ovulation process in the course of an in vitro fertilization (IVF). To make use of both the stimulating and the inhibiting effect of Clomiphene, Teramoto et al had to administer Clomiphene right at the beginning of the menstrual cycle until the day of induction of ovulation, which is usually between the 10th and 12th day of said cycle. The stimulating effect occurs prior to the 6th cycle day, before a dominant follicle is selected, whereas the inhibiting effect starts on day six or seven after selection of the dominant follicle. However, as we observed, if Clomiphene is administered in the described manner, the growth of the endometrium is inhibited at the same time due to the anti-estrogenic effect of Clomiphene (blocking of the estrogen receptors) and thus the embryos should not be transferred in the same cycle, because implantation success rate is low. In order to increase the implantation success rate, the resulting embryos should be frozen and transferred in the next cycle where no Clomiphene medication is conducted.

[1] = system: women with low ovarian reserve; assay: Case study: Clomiphene citrate from day 6 of the cycle to avoid pathological premature LH rise, followed by IVF; type: in vivo, human
Protocol: Women with low ovarian reserve take 50 mg oral Clomiphene Citrate every second day or 25 mg each day after the 6th day of the menstrual cycle until the follicle has reached a desired size of 18-20 mm. Subsequently ovulation is artificially triggered by the administration of GnRH (Gonadotropin releasing hormone) analogs, which is preferred, or human chorionic gonadotropin (HCG), 36-40 h after the administration of the ovulation inducing agent, the women had sexual intercourse. Alternatively, the ovum was obtained after 36 h and was fertilized in vitro in the lab.
A nulliparous person with 6 years of infertility had regular short cycles of 23 days. When they were younger, they had longer cycles of up to 29 days, but starting, their cycles became gradually shorter. […] When a vaginal ultrasound scan was performed that day, a follicle of 14 mm on the left ovary was found. […] Their spouse's semen analysis was normal. They had failed six cycles of gonadotrophins-IUI (intra-uterine inseminations) and 4 IVF attempts. The last two cycles had to be cancelled due to low response in a GnRH antagonist protocol with FSH injections of up to 450 IU per day. On day 7 of their cycle a hormonal assay and vaginal ultrasound scan were performed. […] The women came back two days later. The follicle was gone and an oral contraceptive pill (OCP) for 10 days was started in order to prevent follicle growth during luteal phase. Five days after the last OCP, menstrual bleeding started. No dominant follicle could be seen, serum estradiol was 32 pg/mL and FSH 14 IU/L.
The person was again examined on day 9 of their cycle. […] Since oocytes ovulated from follicles smaller than 16 mm are often of a poor quality and do seldom produce a pregnancy, it was refrained from trying to retrieve the egg this time. The person ovulated the next day.
The person was examined again on day 6 of their next cycle. They had 2 small follicles of 12mm and 11mm on their left ovary. Serum estradiol was 113 pg/mL, FSH 7.7 IU/L and LH 5.6 IU/L. In order to avoid another pathological premature LH rise on a small follicle this cycle, the person was treated with small doses of Clomiphene citrate, i.e. 50mg Clomiphene citrate on day 6, 8 and 10 of the cycle. On day 11 two follicles on the left ovarian was found with sizes of 19mm and 15mm. Serum estradiol was 621 pg/mL and LH […]. Ovulation induction with 0.2mg triptorelix was performed on the evening of the next day and an oocyte was retrieved 36 hours later. Two mature eggs could be retrieved, but only one oocyte could be fertilized by IVF. Vaginal progesterone treatment was started the day of the egg retrieval. The embryo was transferred at day 2. Two weeks later the pregnancy test was positive.

In the case of `CCN(CC)CCOc1ccc(C(=C(Cl)c2ccccc2)c2ccccc2)cc1` [Clomiphene], the “growth of the endometrium” value (endometrium) was “inhibited”.
For `CCN(CC)CCOc1ccc(C(=C(Cl)c2ccccc2)c2ccccc2)cc1` [Clomiphene citrate], the “oocytes fertilized by IVF” value ([1]; of the two mature eggs retrieved) was “only one”, the follicle size ([1]; person, 50mg Clomiphene citrate on day 6, 8 and 10 of the cycle, day 11, two follicles on the left ovary (12mm and 11mm on day 6)) was 19 mm and 15 mm and the Serum estradiol ([1]; person, 50mg on day 6, 8 and 10 of the cycle, measured on day 11 (113 pg/mL on day 6)) was 621 pg/mL. For the same molecule, the LH ([1]; person, 50mg on day 6, 8 and 10 of the cycle, measured on day 11 (5.6 IU/L on day 6)) was 7.4 IU/L, the mature eggs retrieved ([1]; retrieval 36 hours after ovulation induction with 0.2mg triptorelix on the evening of day 12) was “Two” and the pregnancy test ([1]; two weeks after embryo transfer at day 2, same cycle) was “positive”.
